Laboratory results taken from patent publication US10329272B2 (priority 2015, dated 2019).

How the values were obtained:
[1] = test system: Monographella nivalis (Microdochium nivale); assay: Monographella Nivalis (Microdochium Nivale)/Liquid Culture (Foot Rot Cereals); type: cell-based; conditions: liquid culture, growth inhibition photometrically 4-5 days after application, compared to untreated control
Description: Monographella Nivalis (Microdochium Nivale)/Liquid Culture (Foot Rot Cereals)
(§1) Conidia of the fungus from cryogenic storage are directly mixed into nutrient broth (PDB potato dextrose broth). After placing a (DMSO) solution of test compound into a microtiter plate (96-well format), the nutrient broth containing the fungal spores is added. The test plates are incubated at 24° C. and the inhibition of growth is determined photometrically 4-5 days after application.

Gaeumannomyces graminis = assay: Gaeumannomyces Graminis/Liquid Culture (Take-all of Cereals); type: cell-based; conditions: liquid culture, growth inhibition photometrically 4-5 days after application, compared to untreated control
Description: Gaeumannomyces Graminis/Liquid Culture (Take-all of Cereals)
as §1, with “Mycelial fragments of” for “Conidia of”, “storage were” for “storage are”

Fusarium culmorum = assay: microbe, parasite or virus in culture; type: cell-based; conditions: read-out: control of Fusarium culmorum
[2] = test system: Botryotinia fuckeliana (Botrytis cinerea); assay: Botryotinia fuckeliana (Botrytis cinerea)/Liquid Culture (Gray Mould); type: cell-based; conditions: liquid culture, growth inhibition photometrically 3-4 days after application, compared to untreated control
Description: Biological Examples Botryotinia fuckeliana (Botrytis cinerea)/Liquid Culture (Gray Mould)
as §1, with “(Vogels” for “(PDB potato dextrose”, “3-4” for “4-5”

[3] = test system: Glomerella lagenarium (Colletotrichum lagenarium); assay: Glomerella Lagenarium (Colletotrichum Lagenarium)/Liquid Culture (Anthracnose); type: cell-based; conditions: Colletotrichum orbiculare, liquid culture, growth inhibition photometrically 3-4 days after application, compared to untreated control
Description: Glomerella Lagenarium (Colletotrichum Lagenarium)/Liquid Culture (Anthracnose)
as §1, with “measured” for “determined”, “3-4” for “4-5”

[4] = test system: Magnaporthe grisea (Pyricularia oryzae); assay: microbe, parasite or virus in culture; type: cell-based; conditions: read-out: control of Magnaporthe grisea
Sclerotinia sclerotiorum = assay: Sclerotinia sclerotiorum/Liquid Culture (Cottony Rot); type: cell-based; conditions: liquid culture, growth inhibition photometrically 3-4 days after application, compared to untreated control
Description: Sclerotinia sclerotiorum/Liquid Culture (Cottony Rot)
as §1, with “Mycelia fragments of a newly grown liquid culture” for “Conidia”, “fungus” for “fungus from cryogenic storage”, “(Vogels” for “(PDB potato dextrose”, “format)” for “format),”, “material” for “spores”, “3-4” for “4-5”

## Cc1cccc2c(C3=NC(C)(C)C(C)(C)c4c(F)cccc43)snc12 [Compound E-32, 3-(5-fluoro-3,3,4,4-tetramethyl-1-isoquinolyl)-7-methyl-2,1-benzothiazole]
[1]
  inhibition of growth at 20 ppm: ≥ 80%
Gaeumannomyces graminis
  inhibition of growth at 20 ppm: ≥ 80%
Fusarium culmorum
  inhibition of growth at 20 ppm: ≥ 80%
[2]
  inhibition of growth at 20 ppm: ≥ 80%
[3]
  inhibition of growth at 20 ppm: ≥ 80%
[4]
  inhibition of growth at 20 ppm: ≥ 80%
other
  melting point: 96 to 98 °C
Sclerotinia sclerotiorum
  inhibition of growth at 20 ppm: ≥ 80%

## Cc1cccc2c(C3=NC(C)(C)C(F)(F)c4ccccc43)n(C)nc12 [Compound E-11, 1-(2,7-dimethylindazol-3-yl)-4,4-difluoro-3,3-dimethyl-isoquinoline]
[1]
  inhibition of growth at 20 ppm: ≥ 80%
Fusarium culmorum
  inhibition of growth at 20 ppm: ≥ 80%
[2]
  inhibition of growth at 20 ppm: ≥ 80%
[3]
  inhibition of growth at 20 ppm: ≥ 80%
[4]
  inhibition of growth at 20 ppm: ≥ 80%
other
  melting point: 136 to 137 °C
Sclerotinia sclerotiorum
  inhibition of growth at 20 ppm: ≥ 80%

## Cn1nc2c(Br)cccc2c1C1=NC(C)(C)C(F)(F)c2c(F)cccc21 [Compound E-19, 1-(7-bromo-2-methyl-indazol-3-yl)-4,4,5-trifluoro-3,3-dimethyl-isoquinoline]
[1]
  inhibition of growth at 20 ppm: ≥ 80%
[2]
  inhibition of growth at 20 ppm: ≥ 80%
[3]
  inhibition of growth at 20 ppm: ≥ 80%
[4]
  inhibition of growth at 20 ppm: ≥ 80%
other
  melting point: 198 to 199 °C

## Cn1nc2c(Br)cccc2c1C1=NC(C)(C)C(O)c2c(F)cccc21 (stereo not drawn)
other
  melting point: 103 to 105 °C

## Cc1cccc2c(C3=NC(C)(C)C(F)(F)c4c(F)cccc43)n(C)nc12 [Compound E-20, 1-(2,7-dimethylindazol-3-yl)-4,4,5-trifluoro-3,3-dimethyl-isoquinoline]
[1]
  inhibition of growth at 20 ppm: ≥ 80%
Gaeumannomyces graminis
  inhibition of growth at 20 ppm: ≥ 80%
[2]
  inhibition of growth at 20 ppm: ≥ 80%
[3]
  inhibition of growth at 20 ppm: ≥ 80%
[4]
  inhibition of growth at 20 ppm: ≥ 80%
other
  melting point: 164 to 165 °C

## Cc1c(Cl)ccc2c(C3=NC(C)(C)C(C)(C)c4c(F)cccc43)n(C)nc12 [Compound E-26, 1-(6-chloro-2,7-dimethyl-indazol-3-yl)-5-fluoro-3,3,4,4-tetramethyl-isoquinoline]
[1]
  inhibition of growth at 20 ppm: ≥ 80%
[2]
  inhibition of growth at 20 ppm: ≥ 80%
[3]
  inhibition of growth at 20 ppm: ≥ 80%
[4]
  inhibition of growth at 20 ppm: ≥ 80%
other
  melting point: 136 to 142 °C
Sclerotinia sclerotiorum
  inhibition of growth at 20 ppm: ≥ 80%

## Cn1nc2ccccc2c1C1=NC(C)(C)Cc2ccccc21 [Compound E-2, 3,3-dimethyl-1-(2-methylindazol-3-yl)-4H-isoquinoline]
[1]
  inhibition of growth at 20 ppm: ≥ 80%
[2]
  inhibition of growth at 20 ppm: ≥ 80%
[3]
  inhibition of growth at 20 ppm: ≥ 80%
[4]
  inhibition of growth at 20 ppm: ≥ 80%
other
  melting point: 107 to 108 °C
Sclerotinia sclerotiorum
  inhibition of growth at 20 ppm: ≥ 80%

## Cn1nc2cc(F)ccc2c1C1=NC(C)(C)C(C)(C)c2c(F)cccc21 [Compound E-21, 5-fluoro-1-(6-fluoro-2-methyl-indazol-3-yl)-3,3,4,4-tetramethyl-isoquinoline]
[1]
  inhibition of growth at 20 ppm: ≥ 80%
Fusarium culmorum
  inhibition of growth at 20 ppm: ≥ 80%
[2]
  inhibition of growth at 20 ppm: ≥ 80%
[3]
  inhibition of growth at 20 ppm: ≥ 80%
[4]
  inhibition of growth at 20 ppm: ≥ 80%
other
  melting point: 131 to 133 °C

## Cn1nc2c(Br)cccc2c1C1=NC(C)(C)Cc2c(F)cccc21 [Compound E-15, 1-(7-bromo-2-methyl-indazol-3-yl)-5-fluoro-3,3-dimethyl-4H-isoquinoline]
[1]
  inhibition of growth at 20 ppm: ≥ 80%
[2]
  inhibition of growth at 20 ppm: ≥ 80%
[4]
  inhibition of growth at 20 ppm: ≥ 80%
other
  melting point: 168 to 169 °C

## Cn1nc2c(Br)cccc2c1C1=NC(C)(C)C(F)(F)c2ccccc21 [Compound E-10, 1-(7-bromo-2-methyl-indazol-3-yl)-4,4-difluoro-3,3-dimethyl-isoquinoline]
[1]
  inhibition of growth at 20 ppm: ≥ 80%
Gaeumannomyces graminis
  inhibition of growth at 20 ppm: ≥ 80%
[2]
  inhibition of growth at 20 ppm: ≥ 80%
[3]
  inhibition of growth at 20 ppm: ≥ 80%
[4]
  inhibition of growth at 20 ppm: ≥ 80%
other
  melting point: 157 to 158 °C
Sclerotinia sclerotiorum
  inhibition of growth at 20 ppm: ≥ 80%

## Cn1nc2c(Br)cccc2c1C1=NC(C)(C)C(O)c2ccccc21 (stereo not drawn)
other
  melting point: 215 to 217 °C

## Cn1nc2c(Br)cccc2c1C1=NC(C)(C)C(Br)c2ccccc21 (stereo not drawn) [Compound E-7, 4-bromo-1-(7-bromo-2-methyl-indazol-3-yl)-3,3-dimethyl-4H-isoquinoline]
[2]
  inhibition of growth at 20 ppm: ≥ 80%

## Cn1nc2c(Br)cccc2c1C1=NC(C)(C)C(=O)c2c(F)cccc21 [Compound E-18, 1-(7-bromo-2-methyl-indazol-3-yl)-5-fluoro-3,3-dimethyl-isoquinolin-4-one]
[1]
  inhibition of growth at 20 ppm: ≥ 80%
other
  melting point: 260 to 261 °C

## Cn1nc2ccccc2c1C1=NC(C)(C)C(F)(F)c2ccccc21 [Compound E-13, 4,4-difluoro-3,3-dimethyl-1-(2-methylindazol-3-yl)isoquinoline]
[1]
  inhibition of growth at 20 ppm: ≥ 80%
[2]
  inhibition of growth at 20 ppm: ≥ 80%
[3]
  inhibition of growth at 20 ppm: ≥ 80%
[4]
  inhibition of growth at 20 ppm: ≥ 80%
Sclerotinia sclerotiorum
  inhibition of growth at 20 ppm: ≥ 80%

## Cn1nc2c(Br)cccc2c1C1=NC(C)(C)C(=O)c2ccccc21 [Compound E-6, 1-(7-bromo-2-methyl-indazol-3-yl)-3,3-dimethyl-isoquinolin-4-one]
[1]
  inhibition of growth at 20 ppm: ≥ 80%
[2]
  inhibition of growth at 20 ppm: ≥ 80%
[4]
  inhibition of growth at 20 ppm: ≥ 80%

## Cn1nc2c(Cl)c(Cl)ccc2c1C1=NC(C)(C)Cc2ccccc21 [Compound E-24, 1-(6,7-dichloro-2-methyl-indazol-3-yl)-3,3-dimethyl-4H-isoquinoline]
[2]
  inhibition of growth at 20 ppm: ≥ 80%
other
  melting point: 197 to 199 °C

## CC1(C)N=C(c2n[nH]c3ccccc23)c2cccc(F)c2C1(C)C [Compound E-14, 5-fluoro-1-(1H-indazol-3-yl)-3,3,4,4-tetramethyl-isoquinoline]
[2]
  inhibition of growth at 20 ppm: ≥ 80%
other
  melting point: 174 to 177 °C

## Cn1nc2ccccc2c1C1=NC(C)(C)C(Br)c2ccccc21 (stereo not drawn)
other
  melting point: 165 to 166 °C

## Cn1nc2ccccc2c1C1=NC(C)(C)C(=O)c2ccccc21
other
  melting point: 169 to 170 °C

## Cc1ccc2c(C3=NC(C)(C)C(=O)c4ccccc43)n(C)nc2c1C [Compound E-29, 3,3-dimethyl-1-(2,6,7-trimethylindazol-3-yl)isoquinolin-4-one]
[1]
  inhibition of growth at 20 ppm: ≥ 80%
Fusarium culmorum
  inhibition of growth at 20 ppm: ≥ 80%
[2]
  inhibition of growth at 20 ppm: ≥ 80%
[3]
  inhibition of growth at 20 ppm: ≥ 80%
[4]
  inhibition of growth at 20 ppm: ≥ 80%
other
  melting point: 174 to 177 °C
Sclerotinia sclerotiorum
  inhibition of growth at 20 ppm: ≥ 80%

## CC1(C)N=C(c2onc3c(Cl)cccc23)c2ccccc2C1(F)F [Compound E-31, 7-chloro-3-(4,4-difluoro-3,3-dimethyl-1-isoquinolyl)-2,1-benzoxazole]
Gaeumannomyces graminis
  inhibition of growth at 20 ppm: ≥ 80%
[2]
  inhibition of growth at 20 ppm: ≥ 80%
[3]
  inhibition of growth at 20 ppm: ≥ 80%
[4]
  inhibition of growth at 20 ppm: ≥ 80%
Sclerotinia sclerotiorum
  inhibition of growth at 20 ppm: ≥ 80%

## Cc1ccc2c(C3=NC(C)(C)C(F)(F)c4ccccc43)n(C)nc2c1C [Compound E-25, 4,4-difluoro-3,3-dimethyl-1-(2,6,7-trimethylindazol-3-yl)isoquinoline]
[1]
  inhibition of growth at 20 ppm: ≥ 80%
Fusarium culmorum
  inhibition of growth at 20 ppm: ≥ 80%
[2]
  inhibition of growth at 20 ppm: ≥ 80%
[3]
  inhibition of growth at 20 ppm: ≥ 80%
[4]
  inhibition of growth at 20 ppm: ≥ 80%
other
  melting point: 154 to 157 °C
Sclerotinia sclerotiorum
  inhibition of growth at 20 ppm: ≥ 80%
